Measurements from patent US10945435B2, “Imidazopyrimidine derivatives with sulfur containing phenyl and pyridyl substituents” (SYNGENTA PARTICIPATIONS AG, priority 2017, dated 2021).

Legend:
Type in all cases: in vivo
[1] = test system: Plutella xylostella (Diamond Back Moth); assay: Example B11 Plutella xylostella growth inhibition activity; settings: 120 h, application rate of 200 ppm, L2 larvae on treated artificial diet, 5 days after infestation
Method: Plutella xylostella (Diamond Back Moth): Growth Inhibition Activity
(§1) 24-well microtiter plates with artificial diet were treated with aqueous test solutions prepared from 10,000 ppm DMSO stock solutions by pipetting. After drying, the plates were infested with L2 larvae (10 to 15 per well). The samples were assessed for growth inhibition in comparison to untreated samples 5 days after infestation. Control of Plutella xylostella by a test sample is given when the growth inhibition is higher than the untreated sample.

[2] = test system: Spodoptera littoralis (Egyptian Cotton Leaf Worm); assay: Example B14 Spodoptera littoralis anti-feeding activity; settings: foliar, 72 h, application rate of 200 ppm, L1 larvae on sprayed cotton leaf discs, 3 days after infestation, read-out: control (anti-feeding effect)
Method: Spodoptera littoralis (Egyptian Cotton Leaf Worm): Anti-Feeding Activity
Cotton leaf discs were placed onto agar in 24-well microtiter plates and sprayed with aqueous test solutions prepared from 10,000 ppm DMSO stock solutions. After drying the leaf discs were infested with five L1 larvae. The samples were assessed for anti-feeding effect in comparison to untreated samples 3 days after infestation. Control of Spodoptera littoralis by a test sample is given when the anti-feedant effect is higher than the untreated sample.

[3] = test system: Plutella xylostella (Diamond Back Moth); assay: Example B13 Plutella xylostella mortality and growth inhibition; settings: 120 h, application rate of 200 ppm, L2 larvae on treated artificial diet, 5 days after infestation, read-out: effect in at least one of the two categories (mortality or growth inhibition)
Method: Plutella xylostella (Diamond Back Moth)
as §1, with “for mortality and” for “for”, “infestation.” for “infestation. Control of Plutella xylostella by a test sample is given when the growth inhibition is higher than the untreated sample.”

[4] = test system: Diabrotica balteata (Corn Root Worm); assay: Example B4 Diabrotica balteata mortality; settings: 96 h, application rate of 200 ppm, L2 larvae on sprayed maize sprouts, 4 days after infestation
Method: Diabrotica Balteata (Corn Root Worm):
(§2) Maize sprouts placed onto an agar layer in 24-well microtiter plates were treated with aqueous test solutions prepared from 10,000 ppm DMSO stock solutions by spraying. After drying, the plates were infested with L2 larvae (6 to 10 per well). The samples were assessed for mortality 4 days after infestation.

[5] = test system: Diabrotica balteata (Corn Root Worm); assay: Example B2 Diabrotica balteata mortality and growth inhibition; settings: 96 h, application rate of 200 ppm, L2 larvae on sprayed maize sprouts, 4 days after infestation, read-out: effect in at least one of the two categories (mortality or growth inhibition)
Method: Diabrotica balteata (Corn Root Worm)
as §2, with “mortality and growth inhibition in comparison to untreated samples” for “mortality”

[6] = test system: Plutella xylostella (Diamond Back Moth); assay: Example B12 Plutella xylostella feeding/contact activity; settings: 120 h, application rate of 200 ppm, L2 larvae on treated artificial diet, 5 days after infestation
Method: Plutella xylostella (Diamond Back Moth): Feeding/Contact Activity
24-well microtiter plates with artificial diet were treated with aqueous test solutions prepared from 10,000 ppm DMSO stock solutions by pipetting. After drying, the plates were infested with L2 larvae (10 to 15 per well). The samples were assessed for mortality 5 days after infestation.

[7] = test system: Euschistus heros (Neotropical Brown Stink Bug); assay: Example B7 Euschistus heros feeding/contact activity; settings: 120 h, application rate of 200 ppm, N2 nymphs on sprayed soybean leaves, 5 days after infestation
Method: Euschistus heros (Neotropical Brown Stink Bug): Feeding/Contact Activity
(§3) Soybean leaves on agar in 24-well microtiter plates were sprayed with aqueous test solutions prepared from 10,000 ppm DMSO stock solutions. After drying the leaves were infested with N2 nymphs. The samples were assessed for mortality 5 days after infestation.

[8] = test system: Spodoptera littoralis (Egyptian Cotton Leaf Worm); assay: Example B16 Spodoptera littoralis feeding/contact activity; settings: foliar, 72 h, application rate of 200 ppm, L1 larvae on sprayed cotton leaf discs, 3 days after infestation
Method: Spodoptera littoralis (Egyptian Cotton Leaf Worm): Feeding/Contact Activity
(§4) Cotton leaf discs were placed onto agar in 24-well microtiter plates and sprayed with aqueous test solutions prepared from 10,000 ppm DMSO stock solutions. After drying the leaf discs were infested with five L1 larvae. The samples were assessed for mortality 3 days after infestation.

[9] = test system: Euschistus heros (Neotropical Brown Stink Bug); assay: Example B5 Euschistus heros mortality and growth inhibition; settings: 120 h, application rate of 200 ppm, N2 nymphs on sprayed soybean leaves, 5 days after infestation, read-out: effect in at least one of the two categories (mortality or growth inhibition)
Method: Euschistus heros (Neotropical Brown Stink Bug)
as §3, with “mortality and growth inhibition in comparison to untreated samples” for “mortality”

[10] = test system: Frankliniella occidentalis (Western Flower Thrips); assay: Example B8 Frankliniella occidentalis feeding/contact activity; settings: foliar, 168 h, application rate of 200 ppm, mixed-age population on sprayed sunflower leaf discs, 7 days after infestation
Method: Frankliniella occidentalis (Western Flower Thrips): Feeding/Contact Activity
as §4, with “Sunflower” for “Cotton”, “on” for “onto”, “10,000” for “10,000 ppm”, “a Frankliniella population of mixed ages.” for “five L1 larvae.”, “7” for “3”

[11] = test system: Bemisia tabaci (Cotton White Fly); assay: Example B1 Bemisia tabaci feeding/contact activity; settings: foliar, 144 h, application rate of 200 ppm, adult white flies on sprayed cotton leaf discs, 6 days after incubation
Method: Bemisia tabaci (Cotton White Fly): Feeding/Contact Activity
Cotton leaf discs were placed on agar in 24-well microtiter plates and sprayed with aqueous test solutions prepared from 10,000 ppm DMSO stock solutions. After drying the leaf discs were infested with adult white flies. The samples were checked for mortality 6 days after incubation.

[12] = test system: Myzus persicae (Green Peach Aphid); assay: Example B9 Myzus persicae feeding/contact activity; settings: foliar, 144 h, application rate of 200 ppm, mixed-age aphids on sprayed sunflower leaf discs, 6 days after infestation
Method: Myzus persicae (Green Peach Aphid): Feeding/Contact Activity
Sunflower leaf discs were placed onto agar in a 24-well microtiter plate and sprayed with aqueous test solutions prepared from 10,000 ppm DMSO stock solutions. After drying, the leaf discs were infested with an aphid population of mixed ages. The samples were assessed for mortality 6 days after infestation.

[13] = test system: Myzus persicae (Green Peach Aphid); assay: Example B10 Myzus persicae systemic activity; settings: 144 h, test rate of 24 ppm, roots of infested pea seedlings in test solution, 6 days
Method: Myzus persicae (Green Peach Aphid). Systemic Activity
Roots of pea seedlings infested with an aphid population of mixed ages were placed directly into aqueous test solutions prepared from 10,000 DMSO stock solutions. The samples were assessed for mortality 6 days after placing seedlings into test solutions.

CCS(=O)(=O)c1cc(OC(C)C)cnc1-c1cn2cnc(SC(F)(F)F)cc2n1 [Compound P2, 2-(3-ethylsulfonyl-5-isopropoxy-2-pyridyl)-7-(trifluoromethylsulfanyl)imidazo[1,2-c]pyrimidine]
≥ 80%: inhibition at 200 ppm [1] | pest or weed control at 200 ppm [2] | percent effect (mortality or growth inhibition) at 200 ppm [3] | mortality at 200 ppm [4] | percent effect (mortality or growth inhibition) at 200 ppm [5] | mortality at 200 ppm [6] | mortality at 200 ppm [7] | mortality at 200 ppm [8] | percent effect (mortality or growth inhibition) at 200 ppm [9]

CCS(=O)(=O)c1cc(OC(C)(C)C#N)cnc1-c1cn2cnc(C(F)(F)C(F)(F)F)cc2n1 [Compound P18, 2-[[5-ethylsulfonyl-6-[7-(1,1,2,2,2-pentafluoroethyl)imidazo[1,2-c]pyrimidin-2-yl]-3-pyridyl]oxy]-2-methyl-propanenitrile]
≥ 80%: inhibition at 200 ppm [1] | pest or weed control at 200 ppm [2] | mortality at 200 ppm [10] | percent effect (mortality or growth inhibition) at 200 ppm [3] | mortality at 200 ppm [4] | percent effect (mortality or growth inhibition) at 200 ppm [5] | mortality at 200 ppm [6] | mortality at 200 ppm [11] | mortality at 200 ppm [7] | mortality at 200 ppm [12] | mortality at 200 ppm [8] | percent effect (mortality or growth inhibition) at 200 ppm [9]

CCS(=O)(=O)c1cc(OCC(F)(F)F)cnc1-c1cn2cnc(C(F)(F)F)cc2n1 [Compound P6, 2-[3-ethylsulfonyl-5-(2,2,2-trifluoroethoxy)-2-pyridyl]-7-(trifluoromethyl)imidazo[1,2-c]pyrimidine]
≥ 80%: inhibition at 200 ppm [1] | pest or weed control at 200 ppm [2] | mortality at 24 ppm [13] | percent effect (mortality or growth inhibition) at 200 ppm [3] | mortality at 200 ppm [4] | percent effect (mortality or growth inhibition) at 200 ppm [5] | mortality at 200 ppm [6] | mortality at 200 ppm [11] | mortality at 200 ppm [7] | mortality at 200 ppm [12] | mortality at 200 ppm [8] | percent effect (mortality or growth inhibition) at 200 ppm [9]

CCS(=O)(=O)c1cc(OCCSC)cnc1-c1cn2cnc(C(F)(F)F)cc2n1 [Compound P15, 2-[3-ethylsulfonyl-5-(2-methylsulfanylethoxy)-2-pyridyl]-7-(trifluoromethyl)imidazo[1,2-c]pyrimidine]
≥ 80%: mortality at 24 ppm [13] | mortality at 200 ppm [11] | mortality at 200 ppm [7] | mortality at 200 ppm [12] | percent effect (mortality or growth inhibition) at 200 ppm [9]

CCS(=O)(=O)c1cc(OCC(F)(F)F)cnc1-c1cn2cnc(SC(F)(F)F)cc2n1 [Compound P1, 2-[3-ethylsulfonyl-5-(2,2,2-trifluoroethoxy)-2-pyridyl]-7-(trifluoromethylsulfanyl)imidazo[1,2-c]pyrimidine]
≥ 80%: inhibition at 200 ppm [1] | pest or weed control at 200 ppm [2] | percent effect (mortality or growth inhibition) at 200 ppm [3] | mortality at 200 ppm [4] | percent effect (mortality or growth inhibition) at 200 ppm [5] | mortality at 200 ppm [6] | mortality at 200 ppm [11] | mortality at 200 ppm [7] | mortality at 200 ppm [12] | mortality at 200 ppm [8] | percent effect (mortality or growth inhibition) at 200 ppm [9]

CCS(=O)(=O)c1cc(OC(C)C)cnc1-c1cn2cnc(C(F)(F)F)cc2n1 [Compound P7, 2-(3-ethylsulfonyl-5-isopropoxy-2-pyridyl)-7-(trifluoromethyl)imidazo[1,2-c]pyrimidine]
≥ 80%: inhibition at 200 ppm [1] | pest or weed control at 200 ppm [2] | percent effect (mortality or growth inhibition) at 200 ppm [3] | mortality at 200 ppm [4] | percent effect (mortality or growth inhibition) at 200 ppm [5] | mortality at 200 ppm [6] | mortality at 200 ppm [7] | mortality at 200 ppm [12] | mortality at 200 ppm [8] | percent effect (mortality or growth inhibition) at 200 ppm [9]

CCS(=O)(=O)c1cc(OCS(C)(=O)=O)cnc1-c1cn2cnc(C(F)(F)F)cc2n1 [Compound P23, 2-[3-ethylsulfonyl-5-(methylsulfonylmethoxy)-2-pyridyl]-7-(trifluoromethyl)imidazo[1,2-c]pyrimidine]
≥ 80%: mortality at 24 ppm [13] | mortality at 200 ppm [7] | mortality at 200 ppm [12] | percent effect (mortality or growth inhibition) at 200 ppm [9]

CCS(=O)(=O)c1cc(OC(F)F)cnc1-c1cn2cnc(C(F)(F)F)cc2n1 [Compound P21, 2-[5-(difluoromethoxy)-3-ethylsulfonyl-2-pyridyl]-7-(trifluoromethyl)imidazo[1,2-c]pyrimidine]
≥ 80%: inhibition at 200 ppm [1] | pest or weed control at 200 ppm [2] | percent effect (mortality or growth inhibition) at 200 ppm [3] | mortality at 200 ppm [4] | percent effect (mortality or growth inhibition) at 200 ppm [5] | mortality at 200 ppm [6] | mortality at 200 ppm [11] | mortality at 200 ppm [7] | mortality at 200 ppm [12] | mortality at 200 ppm [8] | percent effect (mortality or growth inhibition) at 200 ppm [9]

CCS(=O)(=O)c1cc(OCC(F)F)cnc1-c1cn2cnc([S+]([O-])C(F)(F)F)cc2n1 (stereo not drawn) [Compound P3, 2-[5-(2,2-difluoroethoxy)-3-ethylsulfonyl-2-pyridyl]-7-(trifluoromethylsulfinyl)imidazo[1,2-c]pyrimidine]
≥ 80%: inhibition at 200 ppm [1] | percent effect (mortality or growth inhibition) at 200 ppm [3] | mortality at 200 ppm [4] | percent effect (mortality or growth inhibition) at 200 ppm [5] | mortality at 200 ppm [7] | mortality at 200 ppm [12] | percent effect (mortality or growth inhibition) at 200 ppm [9]
